For one experiment, the system named is Rac. Nature of the experiment: Rac activity assay (GST-PBD affinity precipitation). The experiment is classed as cell-based, human. Particulars: vitronectin 30 minutes, cAMP, PTHrP or transfection. The protocol:
(§1) Human umbilical vein endothelial cells (HUVEC) were grown in Endothelial Growth Medium (containing 2% fetal bovine serum, bFGF and VEGF) (Clonetics, San Diego, Calif.). To render HUVECs quiescent for Rac and/or Rho assays, monolayers of endothelial cells were incubated for 18 hrs in Endothelial Basal Medium supplemented with 0.1% serum (Clonetics). Cell migration and adhesion assays on ECM substrates were performed as previously described in Kim et al. (S. Kim et al., Amer. J. Biol. Chem., 275:33920-33928 (2000); and S. Kim et al., Amer. J. Path., 156:1345-1362 (2000)).
(§2) Rho activity was determined by measuring the amount of Rho affinity bound to GST-Rhotekin binding domain (RBD). Levels of active Rho were determined by Western blotting affinity precipitated protein with anti-Rho antibodies while total Rho levels were measured by immunoblotting total cell lysates with anti-Rho. Rac activity was determined by measuring the amount of Rac affinity precipitated by the GST-p21-activated protein binding domain, PBD (Upstate Biotechnology, Syracuse, N.Y.). Levels of active Rac were determined by immunoblotting affinity precipitated protein with anti-Rac antibodies. […] Total Rac levels were measured by immunoblotting total cell lysates with anti-Rac.

The subject of experiment [1] is chick chorioallantoic membrane (CAM). Nature of the experiment: Chick chorioallantoic membrane (CAM) angiogenesis assay. Particulars: bFGF stimulated CAMs; 250 μM cAMP or 4 μg plasmid. The experiment is classed as in vivo, chicken.
The subject of experiment [2] is HUVECS. Description: Annexin V-FITC staining of HUVECs (apoptosis). The experiment is classed as cell-based, human. Particulars: cells on vitronectin, PTHrP, 250 μM dibutyryl cAMP or transfection. The protocol: Plates were also coated with […] goat anti-mouse IgG (Southern Biotechnology Associates, Inc., Birmingham, Ala.) at 37° C. for 2 h, rinsed, blocked with denatured BSA, and then incubated with […] anti-a5b1 or control IgG (anti-MHC) at 4° C. for 16 hrs. HUVECs were incubated on plates in the presence or absence of 10 mg/ml anti-α5β1, -αvβ3, -α2β1, or -MHC for 0-24 hrs. In some experiments, HUVECs were incubated with antibodies and […] caspase-3, -8 or -9 inhibitors or vehicle control (0.5% DMSO). Cells were then incubated with Annexin V-FITC for 15 min at room temperature in the dark. Washed cells were fixed in 1% paraformaldehyde, then incubated in DAPI. The percentage of Annexin positive cells in 5 microscopic fields was determined at 200× magnification by fluorescence microscopy.
HUVECs were plated for 24 h on ECM protein-coated plates in the presence of anti-αvβ3 or anti-α5β1, 1 μM HA1004 (a PKA inhibitor), and anti-αvβ3 or anti-α5β1 with 1 μM HA1004. Cells were stained with FITC-Annexin V or immunoblotted with anti-cleaved caspase 3 antibodies as described above. 5×10^6 HUVECs were electroporated in 300 μl of EGM with 30 μg of DNA (20 μg dnPKA or PKAcat plasmids, 2 μg N1-GFP and 8 μg pBluescript) at 300 V, 450 μF as previously described (Dormond et al. (2001) Nature Med. 7,1041-7). Expression of transgenes was determined by Western blotting of cell lysates with anti-V5 and anti-GFP antibodies. Transfection efficiency was quantified by determining the percent of cells that were co-transfected with GFP-expression vectors. Eighty-percent transfection efficiency was generally achieved using this electroporation method.

The subject of experiment [3] is chick chorioallantoic membrane (CAM). Nature of the experiment: Apoptosis markers in CAM blood vessels in vivo (Annexin V, cleaved caspases, TUNEL, DNA gels). To be noted: bFGF-stimulated CAMs. Details: species or system chicken. The protocol:
CAM assays were performed as described (Kim et al. (2000) Am. J. Path. 156:1345-1362). Saline or bFGF stimulated CAMs were treated for 24 h with 20 μg anti-α5β1, anti-αvβ3 or control antibodies and then injected intravenously with 50 μl Annexin V-FITC. CAMs were harvested after 2 h, then analyzed by confocal microscopy. Alternatively, CAMs treated as above were excised, minced on ice, and treated with 0.1% dispase/0.1% collagenase for 1 h at 37° C. Single cell suspensions were incubated with FITC-Annexin V and analyzed as described above. bFGF stimulated CAMs were also treated with anti-α5β1 or anti-αvβ3 in the presence or absence of 500 μM caspase-3, -8 or -9 inhibitors. bFGF stimulated CAMs were also transfected with 4 μg N1-GFP, dnPKA or PKAcat expression plasmids. Freshly excised CAMs were homogenized in ice cold RIPA buffer containing protease inhibitors and immunoblotted to detect intact and cleaved caspase 3 or 8. For all treatment groups, n=10. CAMs were fixed with 3.7% paraformaldehyde prior to excision. The average number of blood vessel branch points per treatment group+/−SEM is presented. Some excised CAMs were cryopreserved, cut into 5 μm sections, immunostained with anti-cleaved caspase 3, anti-cleaved caspase 8 and anti-VFW antibodies (to detect blood vessels). CAMs were also stained by the TUNEL method to detect fragmented DNA.

A further experiment concerns Rho. Nature of the experiment: Rho activity assay (GST-Rhotekin binding domain affinity precipitation). In kind it is cell-based, human. Particulars: cells attached to vitronectin 15 minutes; 250 μM dibutyryl cAMP or transfection. The protocol: as §1, §2
For experiment [4], the system named is HUVECS. Nature of the experiment: Staining of actin filaments and focal contacts (rhodamine phalloidin, anti-vinculin). In kind it is cell-based, human. The protocol: Round […] glass coverslips were coated with 5 μg/ml vitronectin for 1 hour at 37° C., then blocked with 3% bovine serum albumin for 2 hours at 37° C. HUVECS were removed from culture dishes by trypsizination, washed in serum-free culture medium, and resuspended in endothelial basal culture medium. Cells were then incubated for one hour at 37° C. on coated coverslips. Cells were incubated in the presence of 25 μg/ml anti-α5β1, anti-α2β1 or no antibodies for 60 minutes. Alternatively, cells in endothelial growth medium containing VEGF and bFGF but no serum were plated on coverslips for 48 hours and then treated with cAMP or medium. Coverslips were then washed to remove unbound cells, fixed for 5 minutes in 3.7% paraformaldehyde and permeabilized in 0.3% TX-100 for 3 minutes. Coverslips were incubated with 0.2 μg/ml anti-vinculin antibodies or rhodamine phalloidin (20 ng/ml) in 20 mg/ml bovine serum albumin in phosphate buffered saline for one hour at room temperature. Coverslips were well washed in PBS and incubated in 10 μg/ml goat anti-mouse-Alexa 568 (for anti-vinculin) for 1 hour at room temperature. Coverslips were mounted using mounting medium prior to fluorescent microsopy.

“Also recorded” adds a separate entry of the source.

Take `CCCC(=O)Nc1ncnc2c1ncn2[C@@H]1O[C@@H]2COP(=O)(O)O[C@H]2[C@H]1OC(=O)CCC` [dibutyryl cAMP]: the “Rac activation (RacGTP to total Rac)” value with Rac is given as “blocked”; with Rac (listed as cell permeable cAMP), “inhibits Rac activation”. Also, the “angiogenesis (blood vessel branch points)” value in experiment [1] is “completely suppresses angiogenesis; also recorded: potently inhibits angiogenesis”. Further, the figures for the “apoptosis of endothelial cells (annexin V positive cells)” value in the experiment with HUVECS [2] and with HUVECS [2] (listed as cAMP) were “induced apoptosis in endothelial cells” and “significantly induce apoptosis”, respectively. Also, the “endothelial cell apoptosis in vivo (TUNEL staining)” value in experiment [3] is reported as “induces endothelial cell apoptosis in vivo”. Also, in the experiment with Rho, the “Rho activity (GTP-loading)” value was “stimulates Rho activity (GTP-loading)”. In addition, the “increase in the number of focal adhesions” value with HUVECS [4] (cAMP treated versus untreated cells) turned out to be 3 fold. Also, the “cell shape, stress fibers and actin remodeling” value with HUVECS [4] (cAMP treatment or transfection, vitronectin) is “remain round and flat and exhibit neither stress fibers nor cortical actin; also recorded: inhibited actin remodeling and induced a flattened morphology”. Also, in the experiment on HUVECS [4] (immunolocalization, cAMP treated cells), the “localization of Rho A” value is listed as “stimulates the translocation of Rho A to the plasma membrane”.
